In patent US5756458A, “Stabilized potent GRF analogs” (Pharmacia & Upjohn Company, priority 1995, dated 1998):
Like-named read-outs stand apart in the source and are kept apart here. Blank lines part the entries; values can stand above or below the substance they belong to. Where no end group is shown, it is not given here.

Tests used:
[1] = In vitro stability in bovine plasma; format: in vitro ADME
Procedure: | ^.noteq. Peptides at 0.03 mM were incubated with bovine plasma at | 37° C. for one hr. Aliquots of 0.1 ml were quenched with 2 ml of | 0.2% aqueous trifluoroacetic acid solution and subjected to solid phase | extraction and HPLC analysis as described in T.M. Kubiak et al. Drug Met. | Disp. 17, 393-397 (1989).

meal-fed Holstein steers = experiment: Mean serum GH in meal-fed Holstein steers after intravenous injection (FIG. 2); format: in vivo; conditions: dose of 0.01 nmol/kg (10 pmol/kg)
Procedure: The enhanced in vivo potency of the compounds of this invention where R19 is Val or Ile is illustrated in FIGS. 1 and 2.
Mean concentration of serum growth hormone (GH) in meal-fed Holstein steers after intravenous injection (10 pmol/kg) of GRF analogs. The assay was performed as described by Moseley et al., J. Endocrinol. 117, 252-259 (1988). Bovine GRF(1-44)NH2 was used as the assay standard.

[2] = tested on: rat pituitary cell cultures; experiment: Growth hormone (GH) release in rat pituitary cell cultures in vitro (FIG. 1); format: cell-based; conditions: Leu^27 -bGRF(1-29)NH2 assay standard
Procedure: Effect of analogs of Thr^2, Ala^15, Leu^27 -bGRF(1-29)NH2 on growth hormone (GH) release in rat pituitary cell cultures in vitro. The assay was performed according to procedure of Frohman and Downs, Methods Enzymol. 124, 371-389 (1986). […] Leu^27 -bGRF(1-29)NH2 was used as the assay standard.

[3] = tested on: primary cultures of rat anterior pituitary cells; conditions: GH secretion; cited from earlier work
Steers [4] = format: in vivo, steer
Procedure: | ^# Steers were injected iv with peptides at the dose of 0.01 nmol/kg | and the procedures were as described in W.M. Moseley et al. J. Endocr. | 117, 253-259 (1988). Relative potency was calculated on the basis of the | area under serum growth hormone (GH) curve monitored for 2 hrs after | treatment.

Steers [5] = format: in vivo, steer; conditions: STUDY II, subcutaneous 0.75 nmol/kg, area under serum GH curve, 6 hrs after treatment, bGRF(1-44)NH2 = 100
Procedure: | ^.sctn. Steers were injected subcutaneously with peptides at the dose | of 0.75 nmol/kg. Relative potency was calculated on the basis of the area | under serum GH curve monitored for 6 hrs after treatment.

plasma DPP-IV = biological target: T1, plasma DPP-IV (Bos taurus, UniProt P81425); experiment: Cleavage after residue 2 by plasma DPP-IV on incubation in bovine plasma in vitro; format: in vitro ADME; set-up: Cleavage after residue 2 (footnote mark ++): key to the marks not given beside the values
T1 construct: from tissue; host or cells: bovine plasma (two different plasma pools)
T1 sequence (P81425 38-765 limits assumed): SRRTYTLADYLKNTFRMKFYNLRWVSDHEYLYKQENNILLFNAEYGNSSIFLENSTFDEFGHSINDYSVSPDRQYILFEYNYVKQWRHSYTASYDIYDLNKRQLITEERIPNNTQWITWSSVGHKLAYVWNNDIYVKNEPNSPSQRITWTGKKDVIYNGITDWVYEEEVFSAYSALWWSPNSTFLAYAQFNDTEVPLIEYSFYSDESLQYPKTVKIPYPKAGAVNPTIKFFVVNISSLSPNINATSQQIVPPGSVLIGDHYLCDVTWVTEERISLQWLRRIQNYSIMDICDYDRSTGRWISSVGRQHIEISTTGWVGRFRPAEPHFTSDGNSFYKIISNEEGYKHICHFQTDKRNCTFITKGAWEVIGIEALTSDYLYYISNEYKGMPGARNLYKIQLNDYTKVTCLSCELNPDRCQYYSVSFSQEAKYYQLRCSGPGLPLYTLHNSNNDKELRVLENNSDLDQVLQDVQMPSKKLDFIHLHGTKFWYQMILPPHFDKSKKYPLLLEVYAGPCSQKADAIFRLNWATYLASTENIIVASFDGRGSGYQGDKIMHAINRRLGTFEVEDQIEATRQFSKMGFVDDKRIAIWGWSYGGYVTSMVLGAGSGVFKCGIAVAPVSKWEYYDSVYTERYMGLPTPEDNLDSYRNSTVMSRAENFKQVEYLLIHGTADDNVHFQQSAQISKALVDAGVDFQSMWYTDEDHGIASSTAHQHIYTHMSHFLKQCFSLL
Procedure: Evidence of the improved metabolic stability of the compounds of this invention (when compared to native GRF) is illustrated in Table I by the in vitro stability data provided. It is noteworthy that in bovine plasma in vitro, the analogs having Thr^2, Val^2, Ile^2 or Leu^2 were not cleaved after residue 2 by plasma DPP-IV under the experimental conditions used in the study (one hour plasma incubation).
++ No cleavage after residue 2 was observed upon incubation in bovine
plasma in vitro over a 1 hr incubation period.

[6] = bovine plasma, STUDY II, plasma pool 2, peptide 0.03 mM, bovine plasma, 37° C., one hr, read-out: In vitro stability (% Inact peptide after 1 hr)
[7] = bovine plasma, STUDY I, plasma pool 1, peptide 0.03 mM, bovine plasma, 37° C., one hr, read-out: In vitro stability (% Inact peptide after 1 hr)

Substance: YTDAIFTNSYRKVLAQLSIRKLLQDILNR-NH2
In vivo bioactivity compared with native GRF (meal-fed Holstein steers): more bioactive than the native GRF
GH-releasing bioactivity in vitro as compared with Thr^2, Ala^15, Leu^27 -bGRF(1-29)NH2 [2]: unchanged

Substance: H-Tyr-Ala-Asp-Ala-Ile-Phe-Ser-Ser-Ala-Tyr-Arg-Arg-Leu-Leu-Ala-Gln-Leu-Ala- Ser-Arg-Arg-Leu-Leu-Gln-Glu-Leu-Leu-Ala-Arg-NH2 /OH [free acid form] (H-YADAIFSSAYRRLLAQLASRRLLQELLAR-OH) [29-amino acid analog of hGRF designed by G. Velicelebi, et al., free acid form]
Potency relative to hGRF(1-40)OH (times as potent) [3]: 1/6

Substance: bGRF(1-14)NH2 [reference compound]
In vivo relative potency iv (Steers [4]; STUDY I, steers, iv 0.01 nmol/kg, area under serum GH curve, 2 hrs after treatment, native bGRF standard = 100): 100

Substance: YTDAIFTNSYRKVLAQLSLRKLLQDILNR-NH2 [Leu^19]
GH-releasing bioactivity in vitro as compared with Thr^2, Ala^15, Leu^27 -bGRF(1-29)NH2 [2]: deleterious

Substance: H-Tyr-Ala-Asp-Ala-Ile-Phe-Ser-Ser-Ala-Tyr-Arg-Arg-Leu-Leu-Ala-Gln-Leu-Ala- Ser-Arg-Arg-Leu-Leu-Gln-Glu-Leu-Leu-Ala-Arg-NH2 /OH [amide analog] (H-YADAIFSSAYRRLLAQLASRRLLQELLAR-NH2) [29-amino acid analog of hGRF designed by G. Velicelebi, et al., amide form]
Potency relative to hGRF(1-40)OH (times as potent) [3]: 1.57

Substance: H-YTDAIFTNSYRKVLAQLSVRKLLQDILNR-NH2
In vivo bioactivity compared with native GRF (meal-fed Holstein steers): more bioactive than the native GRF
GH-releasing bioactivity in vitro as compared with Thr^2, Ala^15, Leu^27 -bGRF(1-29)NH2 [2]: increased

Substance: YADAIFTNSYRKVLAQLSARKLLQDILNR-NH2 [Ala^15,Leu^27-bGRF(1-29)NH2, reference compound]
remaining at 1 h, 0.03 mM [1, 7]: 56.2%

Now from value to substance, other results behind:

remaining at 1 h, 0.03 mM [1, 6]: 83.4%
Substance: H-YVDAIFTNSYRKVLAQLSARKLLQDILNR-NH2 [Val^2,Ala^15,Leu^27-bGRF(1-29)NH2]

remaining at 1 h, 0.03 mM [1, 7]: 39.8%
remaining at 1 h, 0.03 mM [1, 6]: 46.8%
Substance: YADAIFTNSYRKVLGQLSARKLLQDILNR-NH2 [Leu^27-bGRF(1-29)NH2, reference compound]

remaining at 1 h, 0.03 mM [1, 6]: 80.3%
Substance: H-YIDAIFTNSYRKVLAQLSARKLLQDILNR-NH2 [Ile^2,Ala^15,Leu^27-bGRF(1-29)NH2]
In vivo relative potency sc (Steers [5]): 16c
Expected potency relative to isomer Leu^2 Ala^15 Leu^27 bGRF(1-29)NH2 when the ED50 of each is determined and compared (Steers [4]; extrapolated from relative in vivo potency at 0.01 nmol/kg, ED50 not determined): 10-20 times

remaining at 1 h, 0.03 mM [1, 6]: 86.3%
Substance: YLDAIFTNSYRKVLAQLSARKLLQDILNR-NH2 [Leu^2,Ala^15,Leu^27-bGRF(1-29)NH2, reference compound]

remaining at 1 h, 0.03 mM ([1]; plasma, In vitro stability (% Inact peptide after 1 hr)): 91.1%
Cleavage after residue 2 (footnote mark ++) (plasma DPP-IV): ++
DPP-IV related cleavage (plasma DPP-IV): slight DPP-IV related cleavage
Substance: H-YTDAIFTNSYRKVLAQLSARKLLQDILNR-NH2 [Thr^2,Ala^15,Leu^27-bGRF(1-29)NH2]

remaining at 1 h, 0.03 mM [1, 7]: 75.6%
Substance: YTDAIFTNSYRKVLGQLSARKLLQDILNR-NH2 [Thr^2,Leu^27-bGRF(1-29)NH2]
